Measurements taken from patent US7928189B2, “PCSK9 polypeptide fragment” (Ottawa Health Research Institute, priority 2008, dated 2011).
Where no end group is shown, it is not given here. [ ]: non-standard residue; d: D form. pS = N[C@@H](COP(=O)(O)O)C(=O)O

What was measured:
Assay type in all cases: cell-based, human
[1] = tested on: LDLR levels in Huh7 cells; experiment: Kinase inhibitor incubation, LDLR immunoblot of total cell lysates; details: 16 hrs, SSP at 200 nm, GK at 25 μg/ml, relative to untreated cells
Experimental: The level of LDLR was quantified in Huh7 cells by immunoblotting of total cell lysates (50 μg) in response to overnight incubation without (control) or with two different kinase inhibitors, staurosporine (SSP at 200 nm) or GK (genistein at 25 μg/ml) (FIG. 11A). Huh7 cells were seeded onto 6 well plates and grown to 80% confluency in DMEM (Dulbecco's Modified Eagle's Medium)+10% (v/v) FBS (fetal bovine serum)+280 μg/ml GTM (gentamycin). Cells were then incubated for 16 hrs in the same media in the presence or absence of kinase inhibitor; staurosporine (SSP at 200 nm) or GK (genistein at 25 μg/ml). Cells were lysed in 1XRIPA buffer [50 mM Tris (pH 7.6), 150 mM NaCl, 1% (v/v) NP-40, 0.5% (w/v) DOC, 0.1% (w/v) SDS] in the presence of inhibitors, as above. Lysates were rotated at 4° C. for 30 min, centrifuged at 13,000×g for 3 min and supernatants collected. Protein concentrations in total cell lysates were determined by the Bradford dye-binding method using Bio-Rad's Protein Assay Kit (Bio-Rad; Mississauga, ON, CAN). LDLR levels were analyzed by immunoblotting following a standard protocol. The protein signals were quantified by densitometry using Syngene Chemigenius 2XE imager and Gene Tools software. […]

[2] = tested on: PCSK9 phosphorylation in Huh7 cells; experiment: Kinase inhibitor incubation, radiolabelling and immunoprecipitation of secreted PCSK9; details: 32P-orthophosphate, 16 hrs, SSP at 200 nm, GK at 25 μg/ml
Experimental: Untransfected and transfected HepG2 and Huh7 cells were grown to confluence as above. Prior to radiolabeling cells were incubated for 4 hours in serum-free DMEM without sodium phosphate (Invitrogen) or methionine/cysteine (Met/Cys) free DMEM (Invitrogen) and then incubated for 16 hrs in the same media in the presence of either 250 μCi 32P-orthophosphate or 250 μCi 35S-Met/Cys. Media and TCLs were harvested and immunoprecipitated as described above. Samples were fractionated through a 12% SDSPAGE. Following electrophoresis gels were dried and visualized by phosphoimaging using a Typhoon Imager. Signals were quantified using ImageQuant 5.2 software using the integer integration method when comparing samples within a lane and, for samples between lanes, by volume quantitation as recommended. The level of LDLR was quantified in Huh7 cells by immunoblotting of total cell lysates (50 μg) in response to overnight incubation without (control) or with two different kinase inhibitors, staurosporine (SSP at 200 nm) or GK (genistein at 25 μg/ml) (FIG. 11A). […] Protein concentrations in total cell lysates were determined by the Bradford dye-binding method using Bio-Rad's Protein Assay Kit (Bio-Rad; Mississauga, ON, CAN). LDLR levels were analyzed by immunoblotting following a standard protocol. […]

[3] = tested on: LDLR levels in Huh7 cells; experiment: Peptides added to cultured cells, LDLR immunoblot of total cell lysates; details: 24 hours, media minus FBS
Experimental: Cells were seeded onto 6 well plates and grown to ˜80% confluency. All cell lines were grown in DMEM (Dulbecco's Modified Eagle's Medium)+10% (v/v) FBS (fetal bovine serum)+280 μg/ml GTM (gentamycin). In this case, cells were incubated overnight in the same media in the absence of FBS for 12 hours. Peptides are then added to media minus FBS, and at indicated concentrations and this media+peptide is added onto cells cultured for additional 24 hours. Following this incubation we collected the spent media and total cell lysates (TCL) in the presence of protease inhibitor cocktail. 50 μg of proteins from TCL were then fractionated by SDS-PAGE, transferred to nitrocellulose and immunoblotted following standard protocols with a commercial anti LDLR antibody. The protein signals for LDLR were quantified by densitometry using Syngene Chemigenius 2XE imager and Gene Tools software. All values are made relative to values from untreated control cells set as 1 and presented as mean±SEM ([…]).

[4] = tested on: LDLR levels in Huh7 cells; experiment: Overexpression of PCSK9 phosphorylation mutants, LDLR immunoblot; details: 72 hours post-transfection, in comparison to wildtype PCSK9
Experimental: Huh7 cells were untransfected (C-control) or transiently transfected with cDNAs encoding either wild-type (WT) PCSK9, or the naturally-occurring propeptide mutants shown to decrease PCSK9 phosphorylation; A53V PCSK9 and R46L PCSK9 or the engineered propeptide mutants that prevent phosphorylation; S47A PCSK9, E49A PCAK9 and E49D PCSK9 or the engineered C-terminal mutants that prevent phosphorylation; S688A and E690A. 72 hours post-transfection spent media and total cell lysates were collected as described herein. 50 μg of total cell lysates were fractionated through a 7% NuPAGE Tris-Acetate Gel (Invitrogen) and immunoblotted for LDLR as described below. The protein signals were quantified by densitometry using Syngene Chemigenius 2XE imager and Gene Tools software. All values were made relative to values from control cells set as 1 and presented as mean±SEM (n=3). Data were analyzed using GraphPad Prism 5.0 statistical software with significance defined as p<0.05.

Compound	effect on LDLR degradation in comparison to control ([3]; peptide 10 μM)	effect on LDLR degradation in comparison to control ([3]; peptide 100 μM)	other results
O=c1c(-c2ccc(O)cc2)coc2cc(O)cc(O)c12 [GK, genistein]	–	–	level of LDLR [1]: not; phosphorylation of PCSK9 and its prodomain [2]: does not affect PCSK9 phosphorylation
CN[C@@H]1C[C@H]2O[C@@](C)([C@@H]1OC)n1c3ccccc3c3c4c(c5c6ccccc6n2c5c31)C(=O)NC4 [SSP, staurosporine]	–	–	level of LDLR [1]: increased levels of LDLR; phosphorylation of PCSK9 and its prodomain [2]: neither PCSK9 nor its prodomain are phosphorylated
RSRHLAQAS(phos)QELQ (RSRHLAQA[pS]QELQ) [SEQ ID NO:5, phosphorylated PCSK9 polypeptide fragment comprising phosphoSerine 688]	protect LDLR from degradation	protect LDLR from degradation	–
RSRHLAQASQELQ (homo sapiens) [SEQ ID NO:4, unphosphorylated PCSK9 polypeptide fragment comprising Serine 688]	protect LDLR from degradation	–	–
S47E: engineered propeptide mutant that mimics PCSK9 propeptide phosphorylation	–	–	level of LDLR / LDLR degradation [4]: increased LDLR degradation
VLALRS(phos)EEDGLAEAP (VLALR[pS]EEDGLAEAP) [SEQ ID NO:3, phosphorylated PCSK9 polypeptide fragment comprising phosphoSerine 47]	accentuate LDLR degradation	accentuate LDLR degradation	–
VLALRSEEDGLAEAP (homo sapiens) [SEQ ID NO:2, unphosphorylated PCSK9 polypeptide fragment comprising Serine 47]	protect LDLR from degradation	protect LDLR from degradation	–
